# Values quoted from earlier work in US20190032079A1, “SYSTEMIC SYNTHESIS AND REGULATION OF L-DOPA” (MYODOPA LIMITED, priority 2015, published 2019).
# Read-outs that look alike come from different tables or passages of the source.
# Experiments:
# [1] = target: TH (Rattus norvegicus, UniProt P04177)
# [2] = test system: TH
# [3] = target: THΔ32 (Rattus norvegicus, UniProt P04177)
# [4] = target: THΔ68 (Rattus norvegicus, UniProt P04177)
# [5] = intra-intestinal infusion; improved control of PD and dyskinesia
# [6] = preincubation with stoichiometric amounts of dopamine
# Sequence of TH (Rattus norvegicus, UniProt P04177) (P04177 whole entry): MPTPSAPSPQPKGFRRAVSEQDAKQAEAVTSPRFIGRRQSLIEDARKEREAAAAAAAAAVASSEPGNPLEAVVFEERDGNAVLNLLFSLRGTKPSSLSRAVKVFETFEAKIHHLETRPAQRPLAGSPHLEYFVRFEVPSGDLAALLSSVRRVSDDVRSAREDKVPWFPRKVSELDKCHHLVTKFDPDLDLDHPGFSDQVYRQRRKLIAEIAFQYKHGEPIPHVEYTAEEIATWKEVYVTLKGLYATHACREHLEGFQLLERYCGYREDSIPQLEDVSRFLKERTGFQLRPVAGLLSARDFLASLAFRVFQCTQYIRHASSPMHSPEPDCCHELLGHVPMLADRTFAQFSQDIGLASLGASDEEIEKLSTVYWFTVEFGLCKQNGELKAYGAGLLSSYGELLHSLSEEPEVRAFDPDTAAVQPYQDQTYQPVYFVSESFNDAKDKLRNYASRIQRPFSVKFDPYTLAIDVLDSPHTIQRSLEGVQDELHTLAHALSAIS
# Sequence of THΔ32 (P04177 33-498 limits assumed, stated change not applied): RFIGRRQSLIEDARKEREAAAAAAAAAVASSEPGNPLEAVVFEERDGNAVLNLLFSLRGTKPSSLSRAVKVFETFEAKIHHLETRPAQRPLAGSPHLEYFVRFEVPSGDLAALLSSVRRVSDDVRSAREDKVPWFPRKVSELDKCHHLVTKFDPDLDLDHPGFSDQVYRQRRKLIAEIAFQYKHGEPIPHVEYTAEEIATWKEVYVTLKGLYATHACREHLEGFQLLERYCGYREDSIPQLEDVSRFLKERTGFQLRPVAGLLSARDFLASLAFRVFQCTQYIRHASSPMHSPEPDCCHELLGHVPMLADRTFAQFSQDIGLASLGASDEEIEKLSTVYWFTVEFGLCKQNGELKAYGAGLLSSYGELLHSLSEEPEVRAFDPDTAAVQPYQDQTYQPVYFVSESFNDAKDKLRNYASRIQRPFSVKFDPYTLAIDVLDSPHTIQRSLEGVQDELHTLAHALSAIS
# Sequence of THΔ68 (P04177 69-498 limits assumed, stated change not applied): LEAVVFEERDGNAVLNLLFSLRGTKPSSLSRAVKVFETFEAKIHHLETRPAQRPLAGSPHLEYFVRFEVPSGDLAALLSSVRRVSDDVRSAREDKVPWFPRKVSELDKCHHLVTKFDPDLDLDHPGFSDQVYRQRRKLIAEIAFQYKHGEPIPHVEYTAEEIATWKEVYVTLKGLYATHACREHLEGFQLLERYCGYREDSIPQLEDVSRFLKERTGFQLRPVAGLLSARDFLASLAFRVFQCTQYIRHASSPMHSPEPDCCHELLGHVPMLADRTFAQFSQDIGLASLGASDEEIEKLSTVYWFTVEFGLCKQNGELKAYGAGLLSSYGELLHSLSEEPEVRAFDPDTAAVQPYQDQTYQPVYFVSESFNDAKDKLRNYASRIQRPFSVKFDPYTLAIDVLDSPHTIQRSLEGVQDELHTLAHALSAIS
structure (smiles),measurement,setting,value
O=C(O)Cc1ccc(O)c(O)c1 [dihydroxyphenylacetate],binds less tightly than DOPA,[1]; relative to DOPA,100 fold
"N[C@@H](Cc1ccc(O)c(O)c1)C(=O)O [L-DOPA, L-3,4-dihydroxyphenylalanine]",therapeutic range for plasma L-DOPA,,0.2 to 1.5 mg/L
NCCc1ccc(O)c(O)c1 [dopamine],binds more tightly than DOPA,[1]; relative to DOPA,1000 fold
same,decrease of DA affinity for TH when the enzyme is phosphorylated,[1]; ser40 phosphorylation,300 fold
same,increase of TH activity on dissociation of dopamine from the low-affinity site,[2]; Ser40-phosphorylated enzyme,9 fold
same,increase of TH activity on dissociation of dopamine from the low-affinity site,[2]; non-phosphorylated enzyme,12 fold
same,Kd,"[2]; read-out: K(D), second low affinity dopamine-binding site, present in non-phosphorylated and Ser40-phosphorylated forms",90 nM
same,dopamine release from the enzyme,[3],not released
same,inhibition by dopamine,[3]; [6],90%
same,dopamine release from the enzyme,[4],rapidly released
same,inhibition by dopamine,[4]; [6],not inhibited
COC(=O)[C@@H](N)Cc1ccc(O)c(O)c1 [levodopa methyl ester],plasma levels of Levodopa,[5],3000 to 4000 ng/mL
